Laboratory results taken from patent publication US20110110920A1, “METHOD OF TREATING PERIPHERAL ARTERIAL DISEASE” (priority 2008, published 2011).

Tests used:
[1] = system: eNOS; assay: VEGF-induced activation of eNOS in HCAE cells, western blot; format: cell-based, human; conditions: normoxic HCAE cells, VEGF 50 ng/ml, 1 minute
Source text: The membrane was re-probed with anti-GAPDH (glyceraldehyde-3-phosphate dehydrogenase) antibody to show equal protein loading.

[2] = system: Human coronary artery endothelial (HCAE) cells; assay: Endothelial cell invasion through Matrigel toward VEGF; format: cell-based; conditions: normoxic or hypoxic, VEGF 10 ng/ml, no TP508
Procedure: Endothelial cell invasion assays were performed using BD BioCoat™ Angiogenesis System (BD Bioscience, Bedford, Mass.) which utilizes FluoroBlok inserts coated with BD Matrigel Matrix (BD Bioscience, Bedford, Mass.). […] Endothelial cell invasion was performed in normoxic or hypoxic (1% O2) conditions. After 22 hours of incubation, cells were labeled post-invasion with Calcein AM and measured by detecting the fluorescence of the cells that migrated to the underside of insert membrane.

[3] = system: VEGF mRNA; assay: VEGF mRNA expression in HCMVE cells, real-time PCR; format: cell-based, human; conditions: VEGF 10 ng/ml, 24 h
Source text: Data from one experiment performed in triplicate are shown in FIG. 11 as mean±SD. *p<0.01 compared to control (C) cells in normoxia. ^#p<0.01 compared to control (C) cells in hypoxia.

[4] = system: Human Lung Microvascular Endothelial Cells (HLME); assay: Survival of serum-deprived HLME cells; format: cell-based; conditions: serum-deprivation
[5] = system: Human coronary artery endothelial (HCAE) cells; assay: Transmembrane migration of endothelial cells toward VEGF (FluoroBlok inserts); format: cell-based; conditions: hypoxic, VEGF 10 ng/ml as chemoattractant, 22 h
Procedure: Transmembrane cell migration assays were performed using BD FluoroBlok inserts (BD Bioscience, Bedford, Mass.) as described by the vendor. […] (V) or medium alone (C) was added to the lower chamber of the insert plate as a chemoattractant. Endothelial migration was performed in normoxic or 1% hypoxic conditions. After a 22-hour incubation, cells were labeled post-migration with Calcein AM and measured by detecting the fluorescence of the cells that migrated to the underside of the insert membrane.

[6] = system: eNOS mRNA; assay: eNOS mRNA in HCAE cells, RT-PCR and SYBR Green real-time PCR; format: cell-based, human
Procedure: Human coronary artery endothelial cells (HCAE cells, Lonza, Walkersville, Md.) were cultured in 5% CO2 at 37° C. in endothelial cell growth medium (EGM) supplemented with 2% fetal bovine serum and Single Quot supplements (Clonetics, San Diego, Calif.; containing epidermal growth factor, hydrocortisone, vascular endothelial growth factor, fibroblast growth factor, insulin growth factor, ascorbic acid, heparin, gentamycin, and amphotericin B). Cells were used between passages 4 and 6 for these studies. HCAE cells were plated at a density of 50,000 cells per well in 12-well plates and were grown for 3 days to reach confluency. […] Cells were then incubated in normoxic or 1% hypoxic conditions for the indicated times. […] For RNA extraction, HCAE cells were cultured in 6-well plates.
Total RNA was isolated using an Ambion isolation kit as described by the manufacturer.
RT-PCR for eNOS was performed by Ready-to-Go RT-PCR Beads (Amersham Biosciences) using a two-step protocol. […]
Samples were coded to provide blinded analysis. […] Quantitative PCR amplifications were done using 2 μl of cDNA in a total volume of 25 μl using SYBR green probes in the SYBR Green PCR Master Mix (ABI). […] The reverse-transcribed cDNA sample cycle threshold values were determined from triplicate samples and normalized to the 18S “housekeeping” gene.

[7] = system: eNOS; assay: eNOS expression and S1177 phosphorylation in HCAE cells, western blot; format: cell-based, human; conditions: 24 h
Procedure: (§1) Human coronary artery endothelial cells (HCAE cells, Lonza, Walkersville, Md.) were cultured in 5% CO2 at 37° C. in endothelial cell growth medium (EGM) supplemented with 2% fetal bovine serum and Single Quot supplements (Clonetics, San Diego, Calif.; containing epidermal growth factor, hydrocortisone, vascular endothelial growth factor, fibroblast growth factor, insulin growth factor, ascorbic acid, heparin, gentamycin, and amphotericin B). Cells were used between passages 4 and 6 for these studies. HCAE cells were plated at a density of 50,000 cells per well in 12-well plates and were grown for 3 days to reach confluency. […] Cells were then incubated in normoxic or 1% hypoxic conditions for the indicated times.
(§2) The cell lysates were subjected to SDS-PAGE in a 10% polyacrylamide gel and transferred to a nitrocellulose membrane (0.2-μm, Invitrogen). After blocking with 5% milk, the membrane was incubated overnight at 4° C. with primary antibodies against phospho-eNOS (Ser 1177) and eNOS (Cell Signaling Technology, Beverly, Mass.), human type-1 arginase (clone 9C5) (Cell Sciences, Canton, Mass.), or GAPDH (Santa Cruz Biotechnology, Santa Cruz, Calif.). HRP-conjugated anti-mouse or anti-rabbit antibodies (Cell Signaling Technology) were used as secondary antibodies (HRP, horseradish peroxidase). […]

[8] = system: arginase 1; assay: Arginase 1 expression in HCAE cells with or without TNFα, western blot; format: cell-based, human; conditions: TNFα treatment
Procedure: as §1, §2

Substance	phosphorylation of eNOS on serine 1177, maximum [1] [fold]	invasion of control endothelial cells through Matrigel toward human VEGF [2]	VEGF mRNA in hypoxic cells ([3]; hypoxic)	decrease of VEGF mRNA expression compared to control cells ([3]; normoxic) [fold]	cell survival, agent alone [4]	migration of control endothelial cells relative to media control cells [5] [%]	eNOS mRNA expression (RT-PCR) ([6]; 6 h stimulation, 25 or 30 cycles, relative to controls)	decrease of eNOS mRNA level ([6]; 24 h, real-time PCR) [%]	reduction of eNOS expression relative to normoxic controls [7] [%]	expression of arginase 1 (ARG1) relative to control cultures [8]
VEGF	2	not stimulated	no effect, or decreased	2	increased survival at lower levels	~150				
TNFα							drastically decreased	~80	45	significant increase
